Data: article PMC4838840 (2016)

Legend:
[1] = system: Bulges-TB1 (RNA, G4) UUGUGGUGGGUGGGUGGGU; experiment: fluorescence enhancement; conditions: 40 mM K+; 20 mM Tris HCl pH 7.0, 2 μM ThT, 4 μM RNA; F/F0 196-fold
[2] = system: TRF2 (RNA, G4) CGGGAGGGCGGGGAGGGC; experiment: fluorescence titration; conditions: 40 mM K+; 20 mM Tris HCl pH 7.0, 25 °C, 2 μM ThT, 1:1 fit
[3] = system: dsAf16 (RNA) (RNA, duplex) CUUAAUUGUAUAUAUUCGCGAAUAUAUACAAUUAAG; experiment: fluorescence titration; conditions: 40 mM K+; 20 mM Tris HCl pH 7.0, 25 °C, 2 μM ThT, 1:1 fit
[4] = system: BCL-2 (RNA) (RNA, G4) AGGGGGCCGUGGGGUGGGAGCUGGGG; experiment: fluorescence titration; conditions: 40 mM K+; 20 mM Tris HCl pH 7.0, 25 °C, 2 μM ThT, 1:1 fit
[5] = system: tRNA-Ala fragment (RNA, G4) GGGGGUGUAGCUCAGUGGUAGAGCGCGUGC; experiment: fluorescence enhancement; conditions: 40 mM K+; 20 mM Tris HCl pH 7.0, 2 μM ThT, 4 μM RNA; F/F0 88-fold
[6] = system: dsAf16 (DNA) (DNA, duplex) CTTAATTGTATATATTCGCGAATATATACAATTAAG; experiment: fluorescence enhancement; conditions: 40 mM K+; 20 mM Tris HCl pH 7.0; F/F0 65-fold
[7] = system: HP18 (RNA) (RNA, hairpin) CAGUACAGAUCUGUACUG; experiment: fluorescence titration; conditions: 40 mM K+; 20 mM Tris HCl pH 7.0, 25 °C, 2 μM ThT, 1:1 fit
[8] = system: C9orf72 (RNA) (RNA, G4) GGGGCCGGGGCCGGGGCCGGGGCC; experiment: fluorescence titration; conditions: 40 mM K+; 20 mM Tris HCl pH 7.0, 25 °C, 2 μM ThT, 1:1 fit
[9] = system: ssAf20 (DNA) (DNA, single strand) CAATTGTATATATTCG; experiment: fluorescence enhancement; conditions: 40 mM K+; 20 mM Tris HCl pH 7.0; F/F0 59-fold
[10] = system: Tel22 (RNA) (RNA, G4) AGGGUUAGGGUUAGGGUUAGGG; experiment: fluorescence enhancement; conditions: 40 mM K+; 20 mM Tris HCl pH 7.0, 2 μM ThT, 4 μM RNA; F/F0 440-fold
[11] = system: ADAM10 (RNA, G4) GGGGGACGGGUAGGGGCGGGAGGUAGGGG; experiment: fluorescence titration; conditions: 40 mM K+; 20 mM Tris HCl pH 7.0, 25 °C, 2 μM ThT, 1:1 fit
[12] = system: VEGF (RNA, G4) GGAGGAGGGGGAGGAGGA; experiment: fluorescence titration; conditions: 40 mM K+; 20 mM Tris HCl pH 7.0, 25 °C, 2 μM ThT, 1:1 fit
[13] = system: C9orf72 (DNA) (DNA, G4) GGGGCCGGGGCCGGGGCCGGGGCC; experiment: fluorescence enhancement; conditions: 40 mM K+; 20 mM Tris HCl pH 7.0; F/F0 252-fold
[14] = system: ssAf22 (RNA, single strand) UGAGCUUAAUUGUAUAUAUUCG; experiment: fluorescence titration; conditions: 40 mM K+; 20 mM Tris HCl pH 7.0, 25 °C, 2 μM ThT, 1:1 fit
[15] = system: Spinach (RNA, aptamer) GCAGCCGGCUUGUUGAGUAGAGUGUGAGCUCCGUAACUGGUCGCGUC/GACGCGACCGAAUGAAAUGGUGAAGGACGGGUCCAGCCGGCUGC; experiment: fluorescence enhancement; conditions: 40 mM K+; 20 mM Tris HCl pH 7.0, 2 μM ThT, 4 μM RNA; F/F0 487-fold
[16] = system: ERSI (RNA, G4) GGGUAGGGGCAAAGGGGCUGGGG; experiment: fluorescence titration; conditions: 40 mM K+; 20 mM Tris HCl pH 7.0, 25 °C, 2 μM ThT, 1:1 fit
[17] = system: tRNA-Cys fragment (RNA, G4) GGGGGUAUAGCUCAGUGGUAGAGCAUUUGA; experiment: fluorescence enhancement; conditions: 40 mM K+; 20 mM Tris HCl pH 7.0, 2 μM ThT, 4 μM RNA; F/F0 57-fold
[18] = system: ZIC1 (RNA, G4) GGGUGGGGGGGGCGGGGGAGGCCGGGG; experiment: fluorescence titration; conditions: 40 mM K+; 20 mM Tris HCl pH 7.0, 25 °C, 2 μM ThT, 1:1 fit
[19] = system: BCL-2 (DNA) (DNA, G4) AGGGGGCCGTGGGGTGGGAGCTGGGG; experiment: fluorescence enhancement; conditions: 40 mM K+; 20 mM Tris HCl pH 7.0; F/F0 458-fold
[20] = system: ssAf20 (RNA) (RNA, single strand) CAAUUGUAUAUAUUCG; experiment: fluorescence titration; conditions: 40 mM K+; 20 mM Tris HCl pH 7.0, 25 °C, 2 μM ThT, 1:1 fit
[21] = system: Tel22 (DNA) (DNA, G4) AGGGTTAGGGTTAGGGTTAGGG; experiment: fluorescence enhancement; conditions: 40 mM K+; 20 mM Tris HCl pH 7.0; F/F0 1339-fold
[22] = system: HP18 (DNA) (DNA, hairpin) CAGTACAGATCTGTACTG; experiment: fluorescence enhancement; conditions: 40 mM K+; 20 mM Tris HCl pH 7.0; F/F0 36-fold

Cc1ccc2c(c1)sc(-c1ccc(N(C)C)cc1)[n+]2C
binding [1]: yes
K [2]: (0.62 ± 0.61) × 10^5 M^-1
K [3]: (1.43 ± 1.01) × 10^5 M^-1
K [4]: (2.93 ± 0.27) × 10^5 M^-1
binding [5]: yes
binding [6]: yes
K [7]: (5.62 ± 1.94) × 10^4 M^-1
K [8]: (1.92 ± 0.05) × 10^5 M^-1
binding [9]: yes
binding [10]: yes
K [11]: (2.60 ± 0.12) × 10^5 M^-1
K [12]: (1.24 ± 0.15) × 10^5 M^-1
binding [13]: yes
K [14]: (5.53 ± 1.59) × 10^4 M^-1
binding [15]: yes
K [16]: (2.03 ± 0.12) × 10^5 M^-1
binding [17]: yes
K [18]: (0.56 ± 0.22) × 10^5 M^-1
binding [19]: yes
K [20]: (9.37 ± 1.28) × 10^4 M^-1
binding [21]: yes
binding [22]: yes
